# According to patent US8158621B2, “Methods of treating or preventing autoimmune diseases with 2,4-pyrimidinediamine compounds” (Rigel Pharmaceuticals, Inc., priority 2002, dated 2012):
# Assays:
# [1] = tested on: cultured human mast cells (CHMC); experiment: CHMC low cell density ionomycin activation: tryptase assay; type: cell-based; settings: read-out: CHMC Ionomycin Tryptase
# [2] = molecular target: T1, Syk kinase (Homo sapiens, UniProt P43405); experiment: Syk kinase biochemical fluorescence polarization assay; settings: isolated Syk kinase, fluorescence polarization, 4 uM ATP
# T1 construct: purchased Upstate, Lake Placid NY
# [3] = tested on: Human Jurkat T-cells (clone N); experiment: Jurkat T-cell activation (anti-TCR, CD69 upregulation); type: cell-based
# Method in brief: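 Readout is CD69 upregulation by flow cytometry (anti-CD69-APC, 20 min at 4 °C) after 20 h anti-TCR (C305, 500 ng/ml) stimulation at 37 °C.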
# [4] = tested on: cultured human mast cells (CHMC); experiment: CHMC low cell density IgE activation: tryptase assay; type: cell-based; settings: read-out: CHMC anti-IgE Tryptase
# Method in brief: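 Read-out: tryptase released into supernatant, measured by substrate turnover over 30 min at RT. Low-density CHMC (1000-1500 cells/well, per donor degranulation activity) in MT buffer, 1 hr at 37° C, then anti-IgE challenge 30 min at 37° C.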
# [5] = tested on: bone marrow derived mast cells (BMMC); experiment: BMMC high cell density IgE activation: hexosaminidase; type: cell-based, mouse; settings: high cell density; read-out: BMMC anti-IgE Hexos.
# Method: After sensitizing, cells are counted, pelleted (1000 rpm, 5-10 minutes), and resuspended at 1-3×10^6 cells/ml in MT buffer. Add 100 ul of cell suspension to each well and 100 ul of compound dilutions. The final vehicle concentration is 0.5% DMSO. Incubate at 37° C. (5% CO2) for 1 hour. After 1 hour of compound treatment, stimulate cells with 6× stimulus (60 ng/ml DNP-BSA). Mix wells with the cells and allow plates to incubate at 37° C. (5% CO2) for one hour. After 1 hour incubation, pellet cells (10 minutes, 1000 RPM) and collect 200 ul per well of the supernatant, being careful not to disturb pellet, and transfer to a clean tube or 96-well plate. Place the supernatant plate on ice. During the 4-5 hour step (see next) perform the hexosiminidase assay. Resuspend cell pellet in 240 ul WEI-conditioned media containing 0.5% DMSO and corresponding concentration of compound. Incubate BMMC cells for 4-5 hours at 37° C. (5% CO2). After incubation, pellet cells (1000 RPM, 10 minutes) and collect 225 ul per well and place in −80° C. until ready to perform ELISAS. ELISAS are performed on appropriately diluted samples (determined empirically for each donor cell population so that the sample measurement falls within the standard curve) following the supplier's instructions.
# Add 50 uL of BMMC cell supernatant (see above) to the hexoseaminidase substrate, place at 37° C. for 30 minutes and read the plate at 5, 10, 15, and 30 minutes on a spectrophotometer.
# [6] = Mouse Reverse Passive Arthus reaction (RPA reaction); type: in vivo, C57BL/6 mice; settings: oral
# Method: In this model system, test compounds are administered at several timepoints prior to administration of Abs and Ags. A solution of rabbit anti-OVA IgG (50 μg in 25 μl/mouse) is injected intradermally, and immediately following is an intravenous injection of chicken egg albumin (20 mg/kg of body weight) in a solution containing 1% Evans blue dye. The degree of edema and hemorrhage is measured in the dorsal skin of C57BL/6 mice using the Evan's Blue dye as an indicator of local tissue damage. Purified polyclonal rabbit IgG is used as a control.
# Pretreatment time, in which the test compounds are administered prior to Ab/Ag challenge, depends on the pharmacokinetic (PK) properties of each individual compound. Four hours after induction of Arthus reaction, mice are euthanized, and tissues are harvested for assessment of edema.
# [7] = 50 mg/kg, pretreatment time 1.5 hrs
# [8] = 100 mg/kg, pretreatment time 1 hrs + 4 hours
# [9] = 100 mg/kg, pretreatment time 1.5 hrs
# [10] = 100 mg/kg, pretreatment time 1.5 hrs + 4 hours
# [11] = 50 mg/kg, pretreatment time 1.5 hrs + 4 hours
SMILES,IC50 ([1]; low cell density),IC50 [5],IC50 ([4]; low cell density),further results
CNC(=O)C1Cc2cc(Nc3ncc(F)c(Nc4ccc(OC(C)C)cc4)n3)ccc2O1 (stereo not shown) [Compound R926956],–,–,–,IC50 ([1]; Low Density): > 10000 nM; IC50 [2]: 380 nM; IC50 [3]: 749 nM; IC50 ([4]; Low Density): 211 nM
Fc1cnc(Nc2ccc(OCc3ccccc3)c(Cl)c2)nc1Nc1ccc(OCc2ccccc2)c(Cl)c1 [Compound R926965],> 10000 nM,> 10000 nM,> 10000 nM,–
COc1ccc(Nc2nc(Nc3cc(Cl)c(O)c(Cl)c3)ncc2F)cc1Cl [Compound R927044],> 10000 nM,4280 nM,–,–
Oc1c(Cl)cc(Nc2ncc(F)c(Nc3ccc(OC(F)(F)F)c(Cl)c3)n2)cc1Cl [Compound R927046],> 10000 nM,2400 nM,–,–
COc1cc(Nc2ncc(F)c(Nc3ccc4c(c3)NC(=O)C(C)(C)O4)n2)cc(OC)c1.Cc1ccc(S(=O)(=O)O)cc1 [Compound R927070],5240 nM,–,54 nM,"% inhibition to vehicle control Edema Size ± SEM ([6]; 50 mg/kg, pretreatment time 1 hrs): 56 ± 15%; Plasma Concentration ± SEM (ng/ml) Exposure = Pretreatment Time + 4 hours ([6]; 50 mg/kg, pretreatment time 1 hrs + 4 hours): 1755 ± 310 ng/mL; % inhibition to vehicle control Edema Size ± SEM [6, 7]: 31.1 ± 17.29%; % inhibition to vehicle control Edema Size ± SEM ([6]; 100 mg/kg, pretreatment time 1 hrs): 61 ± 14%; Plasma Concentration ± SEM (ng/ml) Exposure = Pretreatment Time + 4 hours [6, 8]: 2851 ± 712 ng/mL; % inhibition to vehicle control Edema Size ± SEM [6, 9]: 55.5 ± 7.7%; Plasma Concentration ± SEM (ng/ml) Exposure = Pretreatment Time + 4 hours [6, 10]: 4095 ± 1187 ng/mL"
COc1ccc(Nc2nc(Nc3ccc4cc[nH]c4c3)ncc2F)cc1Cl.Cc1ccc(S(=O)(=O)O)cc1 [Compound R927087],> 10000 nM,–,436 nM,"% inhibition to vehicle control Edema Size ± SEM [6, 7]: −10.4 ± 14.4%; Plasma Concentration ± SEM (ng/ml) Exposure = Pretreatment Time + 4 hours [6, 11]: 26.9 ± 8.0 ng/mL; % inhibition to vehicle control Edema Size ± SEM [6, 9]: 28.7 ± 16.6%; Plasma Concentration ± SEM (ng/ml) Exposure = Pretreatment Time + 4 hours [6, 10]: 28.7 ± 10.8 ng/mL"
CCOC(=O)CCn1ncc2cc(Nc3ncc(F)c(Nc4ccc(OC)nc4OC)n3)ccc21 [Compound R935381],> 10000 nM,7740 nM,–,–
CNC(=O)CCn1ncc2cc(Nc3ncc(F)c(Nc4ccc(Cl)cc4)n3)ccc21 [Compound R935382],> 10000 nM,200 nM,–,–
CCOC(=O)CCn1ncc2cc(Nc3ncc(F)c(Nc4ccc(F)c(F)c4)n3)ccc21 [Compound R935384],> 10000 nM,> 10000 nM,–,–
CNC(=O)CCn1ncc2cc(Nc3ncc(F)c(Nc4ccc(F)c(F)c4)n3)ccc21 [Compound R935385],> 10000 nM,217 nM,–,–
CC1(C)Oc2ccc(Nc3nc(Nc4ccc5cn[nH]c5c4)ncc3F)cc2NC1=O.O=S(=O)(O)c1ccccc1 [Compound R935429],> 10000 nM,–,36 nM,"% inhibition to vehicle control Edema Size ± SEM [6, 7]: −5.1 ± 14.9%; Plasma Concentration ± SEM (ng/ml) Exposure = Pretreatment Time + 4 hours [6, 11]: 164 ± 89 ng/mL; % inhibition to vehicle control Edema Size ± SEM ([6]; 100 mg/kg, pretreatment time 0 hrs): −2.8 ± 14.8%; Plasma Concentration ± SEM (ng/ml) Exposure = Pretreatment Time + 4 hours [6, 8]: 401 ± 96 ng/mL; % inhibition to vehicle control Edema Size ± SEM [6, 9]: 67.1 ± 13.8%; Plasma Concentration ± SEM (ng/ml) Exposure = Pretreatment Time + 4 hours [6, 10]: 206 ± 115 ng/mL; % inhibition to vehicle control Edema Size ± SEM ([6]; 100 mg/kg, pretreatment time 2 hrs): 55.5 ± 7.9%; % inhibition to vehicle control Edema Size ± SEM ([6]; 100 mg/kg, pretreatment time 4 hrs): 35.0 ± 11.4%"
Cc1ccc(S(=O)(=O)O)cc1.Cc1ccc(S(=O)(=O)O)cc1.OCCCn1ncc2cc(Nc3ncc(F)c(Nc4ccc(Cl)c(Cl)c4)n3)ccc21 [Compound R935451],> 10000 nM,–,> 10000 nM,"% inhibition to vehicle control Edema Size ± SEM ([6]; 10 mg/kg, pretreatment time 1.5 hrs): −14.4 ± 13.3%; Plasma Concentration ± SEM (ng/ml) Exposure = Pretreatment Time + 4 hours ([6]; 10 mg/kg, pretreatment time 1.5 hrs + 4 hours): 14.4 ± 1.8 ng/mL; % inhibition to vehicle control Edema Size ± SEM ([6]; 30 mg/kg, pretreatment time 1.5 hrs): −30.6 ± 15.4%; Plasma Concentration ± SEM (ng/ml) Exposure = Pretreatment Time + 4 hours ([6]; 30 mg/kg, pretreatment time 1.5 hrs + 4 hours): 78.0 ± 32.0 ng/mL; % inhibition to vehicle control Edema Size ± SEM [6, 7]: 74.9 ± 7.5%; Plasma Concentration ± SEM (ng/ml) Exposure = Pretreatment Time + 4 hours [6, 11]: 385.0 ± 149.4 ng/mL; % inhibition to vehicle control Edema Size ± SEM [6, 9]: 77.1 ± 8.0%; Plasma Concentration ± SEM (ng/ml) Exposure = Pretreatment Time + 4 hours [6, 10]: 1459.0 ± 444.4 ng/mL"
Cc1cc(Nc2ncc(F)c(Nc3ccc4c(c3)NC(=O)C(C)(C)O4)n2)cc(Cl)c1O [Compound R940358],4300 nM,–,30 nM,IC50 [2]: 23 nM; IC50 [3]: 159 nM
CNC(=O)COc1cccc(Nc2ncc(F)c(Nc3ccc(N4CCOCC4)cc3)n2)c1 [Compound R945367],> 10000 nM,1290 nM,–,–
CNC(=O)COc1cccc(Nc2ncc(F)c(Nc3ccc(N4CCN(C(=O)OC)CC4)cc3)n2)c1 [Compound R945368],> 10000 nM,1710 nM,–,–
CC(=O)N(C)c1ccc(Nc2ncc(F)c(NC3CC3)n2)cc1 [Compound R945369],> 10000 nM,1270 nM,–,IC50 [2]: 1850 nM
CNC(=O)COc1cccc(Nc2ncc(F)c(NC3CC3)n2)c1 [Compound R945372],> 10000 nM,923 nM,–,–
O=C1COc2ccc(Nc3nc(Nc4cccc(OCC(=O)NC5CC5)c4)ncc3F)nc2N1 [Compound R945390],> 10000 nM,–,118 nM,IC50 [2]: 9 nM
CC(=O)N1CCN(c2ccc(Nc3ncc(F)c(Nc4ccc5c(n4)NC(=O)CO5)n3)cc2)CC1 [Compound R945391],> 10000 nM,–,94 nM,IC50 [2]: 10 nM
COC(=O)N1CCN(c2ccc(Nc3ncc(F)c(Nc4ccc5c(n4)NC(=O)CO5)n3)cc2)CC1 [Compound R945392],> 10000 nM,–,85 nM,IC50 [2]: 14 nM
COc1ccc(Nc2ncc(F)c(Nc3ccc4c(n3)NC(=O)CO4)n2)cc1Cl [Compound R945399],> 10000 nM,–,163 nM,IC50 [2]: 166 nM
CC(=O)N(C)c1ccc(Nc2ncc(F)c(Nc3ccc4c(n3)NC(=O)C(C)(C)O4)n2)cc1 [Compound R945417],> 10000 nM,–,2520 nM,IC50 [2]: > 10000 nM
CNC(=O)COc1cccc(Nc2ncc(F)c(Nc3ccc(OC(F)(F)F)c(C(=O)NCCN)c3)n2)c1 [Compound R950406],> 10000 nM,> 10000 nM,–,–
CNC(=O)COc1cccc(Nc2ncc(F)c(Nc3ccc(OC(F)(F)F)c(C(=O)NC)c3)n2)c1 [Compound R950407],> 10000 nM,> 10000 nM,–,–
CNCCNC(=O)c1cc(Nc2nc(Nc3cccc(OCC(=O)NC)c3)ncc2F)ccc1OC(F)(F)F [Compound R950408],> 10000 nM,4820 nM,–,–
CNC(=O)COc1cccc(Nc2ncc(F)c(Nc3ccc(OC(F)(F)F)c(C(=O)N4CCCCC4)c3)n2)c1 [Compound R950409],> 10000 nM,3240 nM,–,–
CNC(=O)COc1cccc(Nc2ncc(F)c(Nc3ccc(OC(F)(F)F)c(C(=O)NC[C@@H](O)CO)c3)n2)c1 [Compound R950410],> 10000 nM,> 10000 nM,–,–
CNC(=O)COc1cccc(Nc2ncc(F)c(Nc3ccc(OC(F)(F)F)c(C(=O)N4CCOCC4)c3)n2)c1 [Compound R950411],> 10000 nM,4000 nM,–,–
